Key:
[1] = Biodistribution: drug content of organs 24 hours after treatment; format: in vivo, C57BL/6 mice; settings: lung, liver, heart, spleen, tumor
Experimental: Turning to FIG. 21C, serum was collected from C57BL/6 mice treated with DOX, DOXIL or DOX-EVs and analyzed for drug content. Concentration of DOX in the serum (n=3) was measured over 12 hours by a series of blood collections and fluorescence quantifications. […] Twenty-four hours after treatment, the mice were sacrificed and their organs were assessed for drug content.
For pharmacokinetics and biodistribution experiments, tumors were established and mice were treated as described above. Tail vein blood collection was completed at the time points indicated and suspended in acidified alcohol. The blood was analyzed for DOX concentration by fluorescence spectroscopy (ex. 485 nm, em. 595 nm). 24 hours post treatment, the mice were sacrificed and the organs were extracted. The organs were cryopulverized and resuspended in acidified alcohol for fluorescence spectroscopy (ex. 485 nm, em. 595 nm) analysis.

[2] = tested on: EL4 cells; assay: In vitro MTT viability assay of EL4 cells; format: cell-based, mouse; settings: highest concentrations tested, n=3, one-way ANOVA and Tukey HSD
Experimental: Turning now to FIG. 20. FIG. 20 describes the effect of therapeutic agents delivered by EVs of various embodiments as compared to other forms of drug delivery. […] (See, Immordino, et al., Int. J. Nanomedicine 1, 297-315 (2016), the disclosures being incorporated herein by reference.)
EL4 cells were treated over 24 or 48 hours with DOX, DOXIL, DOX-EVs, or unloaded EVs. […] It is important to note that DOX-loaded EVs would not be expected to outperform free DOX in vitro study since their primary benefits (improved biocompatibility and extended release) are critical factors in an in vivo delivery setting.
In vitro viability studies. EL4 cells were plated at 20,000 cells/well in 100 μL of DMEM with 10% FBS. Cells were incubated for 24 hours or 48 hours with the concentrations of DOX, DOXIL or DOX-EVs described in FIG. 20. An MTT assay was performed and cells were incubated with 1 mg/mL of MTT for 1 hour. The crystals were dissolved in 100 μL of DMSO and the absorbance of each well was characterized at 560 nm.
Turning now to FIG. 20. FIG. 20 describes the effect of therapeutic agents delivered by EVs of as compared to other forms of drug delivery. […] (See, Immordino, et al., Int. J. Nanomedicine 1, 297-315 (2016), the disclosures being incorporated herein by reference.)
EL4 cells were treated over 24 or 48 hours with DOX, DOXIL, DOX-EVs, or unloaded EVs. […]

For `COc1cccc2c1C(=O)c1c(O)c3c(c(O)c1C2=O)C[C@@](O)(C(=O)CO)C[C@@H]3O[C@H]1C[C@H](N)[C@H](O)[C@H](C)O1` [DOX, doxorubicin], the “Accumulation of drug in organs” value [1] was “tends to accumulate in the lung” and the “Viability of EL4 cells versus controls” value [2] was “statistically significant (p<0.01) from the controls”.

Reference: patent US11717480B2, “Extracellular vesicles and methods and uses thereof” (The Regents of the University of California, priority 2016, dated 2023)
